Measured values taken from article PMC8352984, “Estrogen mediates sex differences in preoptic neuropeptide and pituitary hormone production in medaka” (Communications Biology, 2021).

How the values were obtained:
medaka Adcyap1r1b = experiment: Receptor activation assay, cAMP-responsive luciferase in COS-7 cells; assay type: cell-based, medaka (Oryzias latipes); details: for receptor activation, increase in intracellular cAMP levels (in words) / EC50: COS-7 cells; for receptor activation, increase in intracellular cAMP levels (in words): 6 h; for EC50: 6 h stimulation, 10^-11 to 10^-5 M, luciferase, triplicate, repeated three times, read-out: half-maximal effective concentration (EC50)
Text: (§1) The number at each node indicates bootstrap values for 1000 replicates. Scale bar represents 0.1 substitutions per site. SCTR, secretin receptor. For species names and GenBank accession numbers, see Supplementary Table 2. b Ability of Pacap and Vip to activate medaka Pacap/Vip receptors. […] Representative sections of pituitary at different levels along the anterior–posterior axis are shown. Arrowheads indicate expression signals. […] Scale bars represent 50 μm. f Identity of the pituitary cells expressing each Pacap/Vip receptor. The spatial expression pattern of each receptor was compared with that of each pituitary hormone gene in the RPD and PI. Left and middle panels show images of the expression of the indicated receptor (adcyap1r1a, adcyap1r1b, or vipr2b; green) and pituitary hormone gene (sl, prl, or pomc; magenta) in the same sections; right panels show the merged images with nuclear counterstaining (blue). […] Scale bars represent 20 μm. Quantitative data were expressed as means with error bars representing standard error of the mean. […] PI pars intermedia, PPD proximal pars distalis, RPD rostral pars distalis.
(§2) Receptor activation assay was performed essentially as described previously. Medaka Pacap (38 amino acids) and Vip (28 amino acids) polypeptides with amidated C termini were synthesized by Scrum (Tokyo, Japan). cDNA fragments encoding the full-length Adcyap1r1a (GenBank accession number XM_023965124), Adcyap1r1b (XM_011474272), Vipr1a (XM_023950180), Vipr1b (XM_004079106), Vipr2a (XM_023950048) and Vipr2b (XM_023965399) were PCR-amplified and subcloned into the expression vector pcDNA3.1/V5-His-TOPO (Thermo Fisher Scientific). Each of the resulting receptor expression constructs was transiently transfected into COS-7 cells (obtained from and authenticated by Riken BRC Cell Bank), together with the cAMP-responsive luciferase reporter vector pGL4.29 (Promega) and the internal control vector pGL4.74 (Promega) at a ratio of 11:18:1 for 6 h by using Lipofectamine LTX and Plus reagent (Thermo Fisher Scientific). Forty-two hours after transfection, cells were stimulated with Pacap or Vip at doses of 0, 10^−11, 10^−10, 10^−9, 10^−8, 10^−7, 10^−6 and 10^−5 M for 6 h. After cell lysis, luciferase activity was measured by using the Dual-Luciferase Reporter Assay System (Promega). Each assay was performed in triplicate and repeated three times independently.

medaka Vipr1b = experiment: as above; assay type: cell-based, medaka (Oryzias latipes); details: for receptor activation, increase in intracellular cAMP levels (in words) / EC50: COS-7 cells; for receptor activation, increase in intracellular cAMP levels (in words): 6 h; for EC50: 6 h stimulation, 10^-11 to 10^-5 M, luciferase, triplicate, repeated three times, read-out: half-maximal effective concentration (EC50)
Text: as §1, §2

medaka Vipr2a = experiment: as above; assay type: cell-based, medaka (Oryzias latipes); details: for receptor activation, increase in intracellular cAMP levels (in words) / EC50: COS-7 cells; for receptor activation, increase in intracellular cAMP levels (in words): 6 h; for EC50: 6 h stimulation, 10^-11 to 10^-5 M, luciferase, triplicate, repeated three times, read-out: half-maximal effective concentration (EC50)
Text: as §1, §2

[1] = tested on: thyroid-stimulating hormone β subunit (tshb) gene expression; experiment: Ex vivo pituitary organ culture, real-time PCR of tshb; assay type: cell-based, medaka (Oryzias latipes); details: for tshb expression (in words): 10^-5 M, 24 h, 25 °C, vs vehicle
Text: (§3) Fig. 8 Pacap and Vip have pleiotropic effects on the expression of anterior pituitary hormones. The effects of Pacap and Vip on gene expression levels of follicle-stimulating hormone β subunit (fshb), luteinizing hormone β subunit (lhb), thyroid-stimulating hormone β subunit (tshb), growth hormone (gh), somatolactin (sl), prolactin (prl), and pro-opiomelanocortin (pomc) were investigated by using male and female pituitaries cultured ex vivo (n = 6 per group, except male pituitary supplemented with Vip, where n = 5). Data were expressed as means with error bars representing standard error of the mean. Statistical differences were assessed by Dunnett’s post-hoc test. *p < 0.05; **p < 0.01; ***p < 0.001.
(§4) The pituitaries from five male or female fish were pooled for each sample and cultured ex vivo in Leibovitz’s L-15 medium supplemented with 5% charcoal-stripped fetal bovine serum as described elsewhere. The medium was further supplemented with 10^−5 M medaka Pacap or Vip, or vehicle alone. After 24 h of culture at 25 °C, the pituitaries were processed for total RNA extraction and cDNA synthesis by using the RNeasy Plus Micro Kit (Qiagen) and SuperScript VILO cDNA Synthesis Kit (Thermo Fisher Scientific), respectively. Real-time PCR was performed on the LightCycler 480 System II using LightCycler 480 SYBR Green I Master (Roche Diagnostics). The cycle conditions were: 95 °C for 5 min followed by 45 cycles of 95 °C for 10 sec, 60 °C for 10 sec and 72 °C for 10 sec. Melting curve analysis was performed as described above. Data were normalized to the geometric mean of three reference genes, actb, gapdh (encoding glyceraldehyde-3-phosphate dehydrogenase; National BioResource Project (NBRP) Medaka clone ID olbrno9_f15) and rpl13 (encoding ribosomal protein L13; NBRP Medaka clone ID olovano51_b24), according to Vandesompele et al.[63]. The primers used for real-time PCR are listed in Supplementary Table 3.

[2] = tested on: somatolactin (sl) gene expression; experiment: Ex vivo pituitary organ culture, real-time PCR of sl; assay type: cell-based, medaka (Oryzias latipes); details: for sl expression (in words): 10^-5 M, 24 h, 25 °C, vs vehicle
Text: as §3, §4

[3] = tested on: pro-opiomelanocortin (pomc) gene expression; experiment: Ex vivo pituitary organ culture, real-time PCR of pomc; assay type: cell-based, medaka (Oryzias latipes); details: for pomc expression (in words): male pituitaries, 10^-5 M, 24 h, 25 °C, vs vehicle;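 as to pomc expression (Fig. 8, pomc): relative expression with female control samples set to 1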
Text: as §3, §4

[4] = tested on: luteinizing hormone release via Adcyap1r1; design: method as in PMID 10949084; details: goldfish and rat; cited from earlier work
Text: (§5) Contrary to pomc, fshb expression was female-biased and repressed by Pacap and Vip in a female-specific manner. […] Possibly, Pacap may have a similar mechanism of action in medaka. In medaka, however, the inhibitory effect on fshb is assumed to be primarily driven ...

[5] = tested on: Fshb expression, gonadotrophs; details: dispersed rat pituitary cells; cited from earlier work
Text: as §5

Substance: vasoactive intestinal peptide [Vip]
- receptor activation, increase in intracellular cAMP levels (in words) (medaka Adcyap1r1b): dose-dependently activated all six receptors
- EC50 (medaka Adcyap1r1b): 0.0178 µM
- receptor activation, increase in intracellular cAMP levels (in words) (medaka Vipr1b): dose-dependently activated all six receptors
- EC50 (medaka Vipr1b): 0.000728 µM
- potency of Pacap and Vip compared (in words) (medaka Vipr2a): fairly similar potencies
- receptor activation, increase in intracellular cAMP levels (in words) (medaka Vipr2a): dose-dependently activated all six receptors
- EC50 (medaka Vipr2a): 2.43 µM
- tshb expression (in words) ([1]; female pituitaries): no significant effects
- tshb expression (Fig. 8, tshb) ([1]; female, replicate 1): 1.106
- tshb expression (Fig. 8, tshb) ([1]; female, replicate 2): 0.773
- tshb expression (Fig. 8, tshb) ([1]; female, replicate 3): 0.549
- tshb expression (Fig. 8, tshb) ([1]; female, replicate 4): 1.002
- tshb expression (Fig. 8, tshb) ([1]; female, replicate 5): 0.461
- tshb expression (Fig. 8, tshb) ([1]; female, replicate 6): 0.560
- tshb expression (in words) ([1]; male pituitaries): no significant effects
- tshb expression (Fig. 8, tshb) ([1]; male, replicate 1): 0.809
- tshb expression (Fig. 8, tshb) ([1]; male, replicate 2): 1.442
- tshb expression (Fig. 8, tshb) ([1]; male, replicate 3): 0.793
- tshb expression (Fig. 8, tshb) ([1]; male, replicate 5): 0.484
- tshb expression (Fig. 8, tshb) ([1]; male, replicate 6): 0.743
- sl expression (in words) ([2]; female pituitaries): substantially increased
- sl expression (Fig. 8, sl) ([2]; female, replicate 1): 2.764
- sl expression (Fig. 8, sl) ([2]; female, replicate 2): 2.848
- sl expression (Fig. 8, sl) ([2]; female, replicate 3): 3.893
- sl expression (Fig. 8, sl) ([2]; female, replicate 4): 3.276
- sl expression (Fig. 8, sl) ([2]; female, replicate 5): 2.230
- sl expression (Fig. 8, sl) ([2]; female, replicate 6): 4.010
- sl expression (in words) ([2]; male pituitaries): substantially increased
- sl expression (Fig. 8, sl) ([2]; male, replicate 1): 2.507
- sl expression (Fig. 8, sl) ([2]; male, replicate 2): 2.455
- sl expression (Fig. 8, sl) ([2]; male, replicate 3): 2.960
- sl expression (Fig. 8, sl) ([2]; male, replicate 5): 2.682
- sl expression (Fig. 8, sl) ([2]; male, replicate 6): 1.395
- pomc expression (Fig. 8, pomc) ([3]; female, replicate 1): 1.053
- pomc expression (Fig. 8, pomc) ([3]; female, replicate 2): 1.048
- pomc expression (Fig. 8, pomc) ([3]; female, replicate 3): 0.787
- pomc expression (Fig. 8, pomc) ([3]; female, replicate 4): 1.201
- pomc expression (Fig. 8, pomc) ([3]; female, replicate 5): 1.189
- pomc expression (Fig. 8, pomc) ([3]; female, replicate 6): 1.854
- pomc expression (in words) [3]: no significant effect
- pomc expression (Fig. 8, pomc) ([3]; male, replicate 1): 3.570
- pomc expression (Fig. 8, pomc) ([3]; male, replicate 2): 3.612
- pomc expression (Fig. 8, pomc) ([3]; male, replicate 3): 5.174
- pomc expression (Fig. 8, pomc) ([3]; male, replicate 5): 6.158
- pomc expression (Fig. 8, pomc) ([3]; male, replicate 6): 3.870

Substance: Pituitary adenylate cyclase-activating polypeptide [Pacap]
- receptor activation, increase in intracellular cAMP levels (in words) (medaka Adcyap1r1b): dose-dependently activated all six receptors
- EC50 (medaka Adcyap1r1b): 0.000116 µM
- greater potency of Pacap as compared with Vip (medaka Adcyap1r1b; ratio of EC50): over 100 fold
- receptor activation, increase in intracellular cAMP levels (in words) (medaka Vipr1b): dose-dependently activated all six receptors
- EC50 (medaka Vipr1b): 0.0149 µM
- Pacap less potent as compared with Vip (medaka Vipr1b; ratio of EC50, Pacap is the weaker): approximately 20 fold
- potency of Pacap and Vip compared (in words) (medaka Vipr2a): fairly similar potencies
- receptor activation, increase in intracellular cAMP levels (in words) (medaka Vipr2a): dose-dependently activated all six receptors
- EC50 (medaka Vipr2a): 3.56 µM
- tshb expression (in words) ([1]; female pituitaries): no significant effects
- tshb expression (Fig. 8, tshb) ([1]; female, replicate 1): 0.514
- tshb expression (Fig. 8, tshb) ([1]; female, replicate 2): 0.485
- tshb expression (Fig. 8, tshb) ([1]; female, replicate 3): 0.534
- tshb expression (Fig. 8, tshb) ([1]; female, replicate 4): 0.502
- tshb expression (Fig. 8, tshb) ([1]; female, replicate 5): 0.686
- tshb expression (Fig. 8, tshb) ([1]; female, replicate 6): 0.387
- tshb expression (in words) ([1]; male pituitaries): no significant effects
- tshb expression (Fig. 8, tshb) ([1]; male, replicate 1): 0.207
- tshb expression (Fig. 8, tshb) ([1]; male, replicate 2): 0.364
- tshb expression (Fig. 8, tshb) ([1]; male, replicate 3): 1.165
- tshb expression (Fig. 8, tshb) ([1]; male, replicate 4): 0.157
- tshb expression (Fig. 8, tshb) ([1]; male, replicate 5): 2.250
- tshb expression (Fig. 8, tshb) ([1]; male, replicate 6): 0.895
- sl expression (in words) ([2]; female pituitaries): substantially increased
- sl expression (Fig. 8, sl) ([2]; female, replicate 1): 5.138
- sl expression (Fig. 8, sl) ([2]; female, replicate 2): 3.103
- sl expression (Fig. 8, sl) ([2]; female, replicate 3): 4.426
- sl expression (Fig. 8, sl) ([2]; female, replicate 4): 3.042
- sl expression (Fig. 8, sl) ([2]; female, replicate 5): 2.318
- sl expression (Fig. 8, sl) ([2]; female, replicate 6): 4.074
- sl expression (in words) ([2]; male pituitaries): substantially increased
- sl expression (Fig. 8, sl) ([2]; male, replicate 1): 1.710
- sl expression (Fig. 8, sl) ([2]; male, replicate 2): 1.255
- sl expression (Fig. 8, sl) ([2]; male, replicate 3): 1.415
- sl expression (Fig. 8, sl) ([2]; male, replicate 4): 1.513
- sl expression (Fig. 8, sl) ([2]; male, replicate 5): 0.886
- sl expression (Fig. 8, sl) ([2]; male, replicate 6): 2.724
- pomc expression (Fig. 8, pomc) ([3]; female, replicate 1): 1.650
- pomc expression (Fig. 8, pomc) ([3]; female, replicate 2): 0.962
- pomc expression (Fig. 8, pomc) ([3]; female, replicate 3): 1.174
- pomc expression (Fig. 8, pomc) ([3]; female, replicate 4): 1.174
- pomc expression (Fig. 8, pomc) ([3]; female, replicate 5): 1.328
- pomc expression (Fig. 8, pomc) ([3]; female, replicate 6): 1.116
- pomc expression (in words) [3]: reduced
- pomc expression (Fig. 8, pomc) ([3]; male, replicate 1): 5.882
- pomc expression (Fig. 8, pomc) ([3]; male, replicate 2): 3.434
- pomc expression (Fig. 8, pomc) ([3]; male, replicate 3): 4.022
- pomc expression (Fig. 8, pomc) ([3]; male, replicate 4): 3.555
- pomc expression (Fig. 8, pomc) ([3]; male, replicate 5): 1.951
- pomc expression (Fig. 8, pomc) ([3]; male, replicate 6): 4.484
- release of luteinizing hormone (in words) [4]: directly stimulates the release of luteinizing hormone via Adcyap1r1
- fshb expression (in words) [5]: acts directly on gonadotrophs to inhibit Fshb expression
